Measurements: ChEMBL document CHEMBL3881527, “Multi-functional small molecules as anti-proliferative agents” (2008)

Key:
[1] = molecular target: Epidermal growth factor receptor (Homo sapiens, UniProt P00533); assay: Inhibition of N-terminal GST-fused human EGFR (His672 to Ala1210 residues) expressed in baculovirus expression system using biotinylated PTP1B at Tyr66 as substrate preincubated for 5 mins followed by substrate addition measured after 30 mins by DELFIA
[2] = molecular target: Receptor tyrosine-protein kinase erbB-2 (Homo sapiens, UniProt P04626); assay: Inhibition of N-terminal GST-tagged human HER2 (Lys676 to Val1255 residues) expressed in baculovirus expression system using biotinylated FLT3 at Tyr589 as substrate preincubated for 5 mins followed by substrate addition measured after 30 mins by DELFIA method
Chain of Receptor tyrosine-protein kinase erbB-2 (P04626 whole entry, the tested form may be a part): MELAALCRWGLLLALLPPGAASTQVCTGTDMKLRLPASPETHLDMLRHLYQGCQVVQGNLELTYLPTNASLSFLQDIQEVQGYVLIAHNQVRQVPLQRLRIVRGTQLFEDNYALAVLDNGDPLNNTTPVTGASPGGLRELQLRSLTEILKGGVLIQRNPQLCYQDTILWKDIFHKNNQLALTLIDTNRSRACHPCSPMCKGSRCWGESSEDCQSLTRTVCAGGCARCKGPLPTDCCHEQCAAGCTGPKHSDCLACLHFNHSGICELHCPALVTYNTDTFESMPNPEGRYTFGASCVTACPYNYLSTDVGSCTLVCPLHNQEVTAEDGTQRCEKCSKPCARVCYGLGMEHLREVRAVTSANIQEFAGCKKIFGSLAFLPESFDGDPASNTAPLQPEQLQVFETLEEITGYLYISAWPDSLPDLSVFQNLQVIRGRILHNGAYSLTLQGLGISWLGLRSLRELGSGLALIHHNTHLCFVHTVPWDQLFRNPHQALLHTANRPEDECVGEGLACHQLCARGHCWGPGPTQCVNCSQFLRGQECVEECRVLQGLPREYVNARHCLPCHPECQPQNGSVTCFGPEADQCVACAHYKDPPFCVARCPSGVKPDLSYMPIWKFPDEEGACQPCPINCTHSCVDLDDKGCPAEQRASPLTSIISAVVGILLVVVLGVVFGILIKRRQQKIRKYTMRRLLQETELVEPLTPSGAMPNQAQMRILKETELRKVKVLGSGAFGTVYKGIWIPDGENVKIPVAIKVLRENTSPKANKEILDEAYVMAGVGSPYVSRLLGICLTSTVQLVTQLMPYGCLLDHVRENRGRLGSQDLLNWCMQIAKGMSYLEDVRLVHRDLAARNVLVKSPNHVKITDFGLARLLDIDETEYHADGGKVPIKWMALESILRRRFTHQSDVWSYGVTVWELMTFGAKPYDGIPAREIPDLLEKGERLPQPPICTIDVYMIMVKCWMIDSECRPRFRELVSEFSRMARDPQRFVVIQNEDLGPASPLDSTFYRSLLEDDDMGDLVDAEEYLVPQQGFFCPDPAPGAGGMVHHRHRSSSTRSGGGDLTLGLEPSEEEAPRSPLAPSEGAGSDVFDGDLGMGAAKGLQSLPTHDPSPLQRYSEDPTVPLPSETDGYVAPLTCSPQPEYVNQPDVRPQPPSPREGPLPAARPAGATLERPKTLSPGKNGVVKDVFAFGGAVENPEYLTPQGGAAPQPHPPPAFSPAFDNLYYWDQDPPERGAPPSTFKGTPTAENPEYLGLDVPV

[3] = molecular target: Vascular endothelial growth factor receptor 2 (Homo sapiens, UniProt P35968); assay: Inhibition of N-terminal GST-His6-thrombin cleavage site-fused human VEGFR2 (Asp805 to Val1356 residues) expressed in baculovirus expression system using biotinylated gastrin precursor at Tyr87 as substrate preincubated for 5 mins followed by substrate addition measured after 30 mins by DELFIA method
Chain of Vascular endothelial growth factor receptor 2 (P35968 whole entry, the tested form may be a part): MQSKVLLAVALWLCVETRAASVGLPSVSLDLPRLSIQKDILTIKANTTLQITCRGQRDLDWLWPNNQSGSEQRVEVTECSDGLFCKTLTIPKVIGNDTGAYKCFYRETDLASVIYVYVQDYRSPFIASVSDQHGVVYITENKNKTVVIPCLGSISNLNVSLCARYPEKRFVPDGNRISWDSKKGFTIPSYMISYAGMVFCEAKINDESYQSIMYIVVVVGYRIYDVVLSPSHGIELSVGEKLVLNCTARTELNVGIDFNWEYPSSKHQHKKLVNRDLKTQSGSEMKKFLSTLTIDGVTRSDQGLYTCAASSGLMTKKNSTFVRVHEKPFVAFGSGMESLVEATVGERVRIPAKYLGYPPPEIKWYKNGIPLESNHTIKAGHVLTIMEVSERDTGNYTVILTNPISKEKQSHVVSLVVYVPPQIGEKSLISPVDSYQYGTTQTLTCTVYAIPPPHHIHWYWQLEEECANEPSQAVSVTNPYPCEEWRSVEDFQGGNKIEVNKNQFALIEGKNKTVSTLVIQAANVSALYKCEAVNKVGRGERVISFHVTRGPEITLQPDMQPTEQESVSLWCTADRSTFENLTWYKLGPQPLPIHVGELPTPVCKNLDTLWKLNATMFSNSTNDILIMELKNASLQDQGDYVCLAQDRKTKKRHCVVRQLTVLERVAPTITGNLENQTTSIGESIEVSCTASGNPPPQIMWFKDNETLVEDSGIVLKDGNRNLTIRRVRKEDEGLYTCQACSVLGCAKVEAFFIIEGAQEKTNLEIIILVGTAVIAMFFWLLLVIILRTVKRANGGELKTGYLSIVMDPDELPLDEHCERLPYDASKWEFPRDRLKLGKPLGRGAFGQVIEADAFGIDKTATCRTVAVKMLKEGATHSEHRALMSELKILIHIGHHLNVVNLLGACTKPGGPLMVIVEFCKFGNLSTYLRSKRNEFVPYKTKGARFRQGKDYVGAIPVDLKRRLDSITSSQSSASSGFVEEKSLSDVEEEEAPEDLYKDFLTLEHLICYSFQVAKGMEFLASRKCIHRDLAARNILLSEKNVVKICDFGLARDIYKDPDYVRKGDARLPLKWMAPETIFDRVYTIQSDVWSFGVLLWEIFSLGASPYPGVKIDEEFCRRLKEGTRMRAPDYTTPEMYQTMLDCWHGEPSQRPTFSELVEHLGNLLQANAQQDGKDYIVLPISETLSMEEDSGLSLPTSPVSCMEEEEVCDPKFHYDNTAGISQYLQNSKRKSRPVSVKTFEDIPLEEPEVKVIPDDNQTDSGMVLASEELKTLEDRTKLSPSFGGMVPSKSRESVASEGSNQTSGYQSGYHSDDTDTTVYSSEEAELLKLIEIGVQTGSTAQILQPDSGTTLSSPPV

Chain of Epidermal growth factor receptor (P00533 whole entry, the tested form may be a part): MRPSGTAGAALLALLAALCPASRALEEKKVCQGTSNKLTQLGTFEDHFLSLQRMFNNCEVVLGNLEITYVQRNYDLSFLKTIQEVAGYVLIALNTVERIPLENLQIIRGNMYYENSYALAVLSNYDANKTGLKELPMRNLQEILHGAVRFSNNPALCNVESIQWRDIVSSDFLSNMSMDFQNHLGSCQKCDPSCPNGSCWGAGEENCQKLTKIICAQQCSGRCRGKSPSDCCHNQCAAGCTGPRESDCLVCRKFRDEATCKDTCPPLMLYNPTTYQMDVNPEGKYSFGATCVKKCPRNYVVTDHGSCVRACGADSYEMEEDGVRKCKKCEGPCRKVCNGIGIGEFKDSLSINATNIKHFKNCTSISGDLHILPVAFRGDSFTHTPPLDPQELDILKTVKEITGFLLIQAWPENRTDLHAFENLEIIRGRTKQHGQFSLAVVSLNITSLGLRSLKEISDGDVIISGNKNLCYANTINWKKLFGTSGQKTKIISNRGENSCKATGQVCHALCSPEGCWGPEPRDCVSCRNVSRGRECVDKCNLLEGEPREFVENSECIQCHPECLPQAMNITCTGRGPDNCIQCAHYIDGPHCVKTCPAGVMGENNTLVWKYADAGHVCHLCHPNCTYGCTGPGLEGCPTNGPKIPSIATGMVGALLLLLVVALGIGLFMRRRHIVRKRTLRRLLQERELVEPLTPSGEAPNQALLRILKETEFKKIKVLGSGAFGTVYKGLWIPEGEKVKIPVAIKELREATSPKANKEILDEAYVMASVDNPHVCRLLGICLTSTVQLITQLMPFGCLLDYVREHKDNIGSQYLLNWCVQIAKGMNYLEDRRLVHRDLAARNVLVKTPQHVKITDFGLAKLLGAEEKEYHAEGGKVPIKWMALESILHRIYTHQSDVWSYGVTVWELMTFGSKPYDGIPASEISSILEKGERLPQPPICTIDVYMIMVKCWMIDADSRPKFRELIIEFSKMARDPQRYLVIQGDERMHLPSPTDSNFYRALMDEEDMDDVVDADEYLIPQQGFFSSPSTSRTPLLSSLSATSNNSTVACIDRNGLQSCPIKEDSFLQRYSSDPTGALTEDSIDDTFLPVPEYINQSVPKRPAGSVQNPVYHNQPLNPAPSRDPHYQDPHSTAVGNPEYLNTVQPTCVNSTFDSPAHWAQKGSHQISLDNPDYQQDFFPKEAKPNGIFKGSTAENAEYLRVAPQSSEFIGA

Row | SMILES | IC50 [1] [nM] | IC50 [2] [nM] | IC50 [3] [nM]
1 | C[C@@H](Nc1ncnc2[nH]c(-c3ccc(CNCC(=O)NO)cc3)cc12)c1ccccc1 | 1000 to 10000 | 1000 to 10000 | 
2 | C[C@@H](Nc1ncnc2[nH]c(-c3ccc(OCCCCC(=O)NO)cc3)cc12)c1ccccc1 | ≤ 100 | 100 to 1000 | 100 to 1000
3 | C[C@@H](Nc1ncnc2c1cc(-c1ccc(C(=O)NCCNCCCCCCC(=O)NO)cc1)n2C)c1ccccc1 |  | 100 to 1000 | 1000 to 10000
4 | C[C@@H](Nc1ncnc2[nH]c(-c3ccc(OCCCC(=O)NO)cc3)cc12)c1ccccc1 | ≤ 100 | 100 to 1000 | 100 to 1000
5 | O=C(CCCCCCOc1ccc2ncnc(Nc3ccc(OCc4cccc(F)c4)c(Cl)c3)c2c1)NO |  | ≤ 100 | 
6 | C#Cc1cccc(Nc2ncnc3cc(OCCCCCCC(=O)NO)c(OC)cc23)c1 |  | 100 to 1000 | 
7 | C[C@@H](Nc1ncnc2[nH]c(-c3ccc(NCCCCCC(=O)NO)cc3)cc12)c1ccccc1 | ≤ 100 | ≤ 100 | ≤ 100
8 | C#Cc1cccc(Nc2ncnc3cc(OC)c(OCC(=O)NO)cc23)c1 |  | ≤ 100 | 
9 | O=C(CCCCCCNCc1cc(Oc2ccc(NC(=O)Nc3ccc(Cl)c(C(F)(F)F)c3)cc2)ccn1)NO |  |  | 100 to 1000
10 | COc1cc2ncnc(Nc3ccc(F)c(Cl)c3)c2cc1SCCCCCCC(=O)NO |  | ≤ 100 | 
11 | COCCOc1cc2ncnc(Nc3ccc(F)c(Cl)c3)c2cc1OCCCCCCC(=O)NO |  | 100 to 1000 | 
12 | C[C@@H](Nc1ncnc2[nH]c(-c3ccc(C(=O)NCCNCCCCCCC(=O)NO)cc3)cc12)c1ccccc1 | ≤ 100 | 100 to 1000 | 100 to 1000
13 | C[C@@H](Nc1ncnc2[nH]c(-c3ccc(NC(=O)CCCCC(=O)NO)cc3)cc12)c1ccccc1 | ≤ 100 | 100 to 1000 | 100 to 1000
14 | COc1cc2ncnc(Nc3ccc(F)c(Cl)c3)c2cc1OCCCCCCC(=O)NO | 3.1 | ≤ 100 | 100 to 1000
15 | O=C(Nc1ccc(Oc2ccnc(C(=O)NO)c2)cc1)Nc1ccc(Cl)c(C(F)(F)F)c1 |  |  | 1000 to 10000
16 | C[C@@H](Nc1ncnc2[nH]c(-c3ccc(CN4CCN(CCC(=O)NO)CC4)cc3)cc12)c1ccccc1 | ≤ 100 | ≤ 100 | 100 to 1000
17 | C[C@@H](Nc1ncnc2[nH]c(-c3ccc(CNCCCCCCC(=O)NO)cc3)cc12)c1ccccc1 | ≤ 100 | 100 to 1000 | 100 to 1000
18 | C[C@@H](Nc1ncnc2[nH]c(-c3ccc(NCc4ccc(C(=O)NO)cc4)cc3)cc12)c1ccccc1 | ≤ 100 | 100 to 1000 | 1000 to 10000
19 | COc1cc2ncnc(Nc3ccc(F)c(Cl)c3)c2cc1SCCCCC(=O)NO |  | ≤ 100 | 

Row | SMILES | IC50 [1] [nM] | IC50 [2] [nM] | IC50 [3] [nM]
20 | O=C(CCCC(=O)NCc1cc(Oc2ccc(NC(=O)Nc3ccc(Cl)c(C(F)(F)F)c3)cc2)ccn1)NO |  |  | ≤ 100
21 | C[C@@H](Nc1ncnc2[nH]c(-c3ccc(C(=O)NO)cc3)cc12)c1ccccc1 | ≤ 100 | ≤ 100 | 100 to 1000
22 | C[C@@H](Nc1ncnc2[nH]c(-c3ccc(OCCCCCC(=O)NO)cc3)cc12)c1ccccc1 | ≤ 100 | 100 to 1000 | 1000 to 10000
23 | C[C@@H](Nc1ncnc2[nH]c(-c3ccc(C(=O)NCCNCCCCCC(=O)NO)cc3)cc12)c1ccccc1 | ≤ 100 | 100 to 1000 | 100 to 1000
24 | Cc1[nH]c(/C=C2\C(=O)Nc3ccc(F)cc32)c(C)c1C(=O)NCCCCCC(=O)N(C)O |  |  | ≤ 100
25 | C[C@@H](Nc1ncnc2[nH]c(-c3ccc(NC(=O)CCC(=O)NO)cc3)cc12)c1ccccc1 | ≤ 100 | 100 to 1000 | 100 to 1000
26 | COc1cc2ncnc(Nc3ccc(OCc4cccc(F)c4)c(Cl)c3)c2cc1OCCCCCCC(=O)NO |  | ≤ 100 | 
27 | COCCOc1cc2c(Nc3ccc(F)c(Cl)c3)ncnc2cc1OCCCCCCC(=O)NO |  | 100 to 1000 | 
28 | C[C@@H](Nc1ncnc2[nH]c(-c3ccc(CN4CCN(CCCC(=O)NO)CC4)cc3)cc12)c1ccccc1 | ≤ 100 | ≤ 100 | 100 to 1000
29 | C#Cc1cccc(Nc2ncnc3cc(OCCCCCCC(=O)NO)c(OCCOC)cc23)c1 |  | 100 to 1000 | 
30 | C[C@@H](Nc1ncnc2[nH]c(-c3ccc(NC(=O)CCCC(=O)NO)cc3)cc12)c1ccccc1 | ≤ 100 | 100 to 1000 | 100 to 1000
31 | O=C(CCCCCCCNCc1cc(Oc2ccc(NC(=O)Nc3ccc(Cl)c(C(F)(F)F)c3)cc2)ccn1)NO |  |  | 100 to 1000
32 | C#Cc1cc(Nc2ncnc3cc(OC)c(OCCCCCCC(=O)NO)cc23)ccc1O |  | ≤ 100 | 
33 | O=C(CCCC(=O)Nc1cc(Oc2ccc(NC(=O)Nc3ccc(Cl)c(C(F)(F)F)c3)cc2)ccn1)NO |  |  | ≤ 100
34 | Cc1[nH]c(/C=C2\C(=O)Nc3ccc(F)cc32)c(C)c1C(=O)NCCOc1ccc(/C=C/C(=O)NO)cc1 |  |  | ≤ 100
35 | C[C@@H](Nc1ncnc2[nH]c(-c3ccc(OCCCCCCC(=O)NO)cc3)cc12)c1ccccc1 | ≤ 100 | 100 to 1000 | ≤ 100
36 | C[C@@H](Nc1ncnc2[nH]c(-c3ccc(OCCNCCCCCCC(=O)NO)cc3)cc12)c1ccccc1 | ≤ 100 | ≤ 100 | ≤ 100
37 | C[C@@H](Nc1ncnc2[nH]c(-c3ccc(CN4CCN(CCCCCC(=O)NO)CC4)cc3)cc12)c1ccccc1 |  | 100 to 1000 | 100 to 1000
38 | C#Cc1cccc(Nc2ncnc3cc(OC)c(NC(=O)CCCCCCC(=O)NO)cc23)c1 |  | 100 to 1000 | 

Row | SMILES | IC50 [1] [nM] | IC50 [2] [nM] | IC50 [3] [nM]
39 | C[C@@H](Nc1ncnc2[nH]c(-c3ccc(CN4CCN(CCCCC(=O)NO)CC4)cc3)cc12)c1ccccc1 | ≤ 100 | 100 to 1000 | 100 to 1000
40 | C[C@@H](Nc1ncnc2[nH]c(-c3ccc(OCCCCCCC(=O)NO)cc3)cc12)c1ccc(F)cc1 | 100 to 1000 | 100 to 1000 | 1000 to 10000
41 | C[C@@H](Nc1ncnc2[nH]c(-c3ccc(NCc4ccc(/C=C/C(=O)NO)cc4)cc3)cc12)c1ccccc1 | ≤ 100 |  | 1000 to 10000
42 | C[C@@H](Nc1ncnc2[nH]c(-c3ccc(CNCc4ccc(/C=C/C(=O)NO)cc4)cc3)cc12)c1ccccc1 | ≥ 10000 | ≥ 10000 | ≥ 10000
43 | O=C(CCCCCCOc1ccc(-c2cc3c(NCc4ccccc4)ncnc3[nH]2)cc1)NO | 100 to 1000 | 1000 to 10000 | 1000 to 10000
44 | C[C@@H](Nc1ncnc2[nH]c(-c3ccc(CN4CCN(CCCCCCC(=O)NO)CC4)cc3)cc12)c1ccccc1 | ≤ 100 | ≤ 100 | 100 to 1000
45 | C[C@@H](Nc1ncnc2[nH]c(-c3ccc(CNCCCCCC(=O)NO)cc3)cc12)c1ccccc1 | ≤ 100 | 100 to 1000 | 100 to 1000
46 | O=C(CCCCCNCc1ccc(-c2ccc3ncnc(Nc4ccc(OCc5cccc(F)c5)c(Cl)c4)c3c2)o1)NO |  | ≤ 100 | 
47 | COc1cc2c(Nc3ccc(F)c(Cl)c3)ncnc2cc1OCCCCCCC(=O)NO |  | 100 to 1000 | 
48 | O=C(CCCCOc1cc(Oc2ccc(NC(=O)Nc3ccc(Cl)c(C(F)(F)F)c3)cc2)ccn1)NO |  |  | ≤ 100
49 | C[C@@H](Nc1ncnc2[nH]c(-c3ccc(CN4CCC(NCCCCCCCC(=O)NO)CC4)cc3)cc12)c1ccccc1 |  | ≤ 100 | 
50 | O=C(CCCCCN1CCN(Cc2ccc(-c3cc4c(NCc5ccccc5)ncnc4[nH]3)cc2)CC1)NO | 100 to 1000 | 100 to 1000 | 100 to 1000
51 | C[C@@H](Nc1ncnc2[nH]c(-c3ccc(OCC(=O)NO)cc3)cc12)c1ccccc1 | ≤ 100 | ≤ 100 | 1000 to 10000
52 | C[C@@H](Nc1ncnc2[nH]c(-c3ccc(OCCNCCCCCCCC(=O)NO)cc3)cc12)c1ccccc1 |  | ≤ 100 | 
53 | C[C@@H](Nc1ncnc2[nH]c(-c3ccc(NCCCCCCC(=O)NO)cc3)cc12)c1ccccc1 | ≤ 100 | ≤ 100 | 100 to 1000
54 | C[C@@H](Nc1ncnc2[nH]c(-c3ccc(C(=O)NCCNCCC(=O)NO)cc3)cc12)c1ccccc1 | ≤ 100 | 100 to 1000 | 100 to 1000
55 | C[C@@H](Nc1ncnc2[nH]c(-c3ccc(NC(=O)CCCCCCC(=O)NO)cc3)cc12)c1ccccc1 | ≤ 100 | 100 to 1000 | 100 to 1000
56 | C[C@@H](Nc1ncnc2[nH]c(-c3ccc(CNCc4ccc(C(=O)NO)cc4)cc3)cc12)c1ccccc1 | ≤ 100 | 100 to 1000 | 100 to 1000
